Assay results as given in patent US9993494B2, “Compositions and methods for treating fibrotic disease” (eFFECTOR Therapeutics, Inc., priority 2014, dated 2018).

Experiments:
[1] = test system: normal human lung fibroblasts; assay: Western blot of α-smooth muscle actin (α-SMA) in TGFβ-treated fibroblasts; assay type: cell-based; settings: for TGFβ-induced α-SMA protein level / % Renormalization α-SMA: western blot; for % Renormalization α-SMA: fibroblasts treated with TGFβ
Protocol: (§1) Briefly, normal human lung fibroblasts (Lonza #CC-2512; cell passage numbers 2 through 5 were used for all experiments) were seeded (Day 0) and cultured in Dulbecco's modified Eagle medium (DMEM) supplemented with 10% fetal bovine serum (FBS), penicillin, streptomycin and glutamax (Invitrogen) at 37° C. in a humidified incubator with 5% CO2 overnight. On Day 1, cells were harvested, washed with phosphate buffered saline (PBS), and then incubated for 48 hours in fresh serum-free DMEM supplemented with penicillin, streptomycin, and glutamax.
(§2) After this 24 hour incubation, procollagen type 1 levels were measured by collecting culture media, centrifuging to pellet cellular debris, and stored at −80° C. Procollagen Type 1 C-Peptide (PIPC) was quantified using the (PIP) EIA kit (Clontech, Cat. No. MK101) according to manufacturer's instructions. The TGFβ-treated fibroblasts of this example were examined by ribosomal profiling (about 6×10^6 cells/10 cm plate) and western blot analysis (about 1×10^6 cells/well of a 6-well plate).
(§3) TGFβ-dependent activation of the PI3K/Akt/mTOR and ERK pathways were also examined by western blot analysis (about 1×10^6 cells/well from a 6-well plate). Briefly, cells were washed with PBS and lysed in 1× cell lysis buffer (Cell Signaling Technology, Inc., Danvers, Mass.) for 15 minutes at 4° C. Lysates were briefly sonicated, clarified by centrifugation for 15 minutes at 14,000 rpm, and then supernatants were collected. Protein concentration in the soluble fraction was determined by BCA protein assay (Thermo Scientific, Rockford, Ill.). Samples of protein (20 μg) were resolved on 4-20% Bis-Tris gradient gel (Invitrogen, Carlsbad, Calif.) and transferred to nitrocellulose membrane. The resulting blots were blocked for 1 hour at room temperature with Odyssey blocking solution (LI-COR) and then incubated with primary antibodies at 4° C. overnight. The following day, each blot was washed three times for 10 minutes in TBST, and then incubated with goat anti-rabbit fluorescent conjugated secondary antibody (IRDye 800 CW at 1:20,000; LI-COR) for 1 hour at room temperature. The blots were washed and scanned, and then specific proteins were detected by using the LI-COR Odyssey infrared imager. The following antibodies were used at 1:1000 dilution: anti-α-actin (Sigma #A2547), anti-phospho-4EBP(Ser65), anti-phospho-rpS6(Ser235/236)(#4858), anti-phospho-ERK1/2(Thr202/Tyr204)(#4370), anti-phospho-p70S6K(Thr421/Ser424)(#9204), anti-phospho-pAKT(Ser473), anti-phospho-MNK(Thr197/202), and anti-β-actin (#4970). Unless otherwise indicated, the antibodies were from Cell Signaling Technology, Inc. (Danvers, Mass.).
as §1, with “(Lonza;” for “(Lonza #CC-2512;”, “CO2 conditions” for “CO2”, “glutamax. On Day 3, cells were harvested, resuspended in fresh serum-free DMEM containing silvestrol (1, 5, 10, 75, 100, 500, or 1000 nM) and 10 ng/ml TGFβ, and cultured for 24 hours. Controls included untreated cells and cells treated with only TGFβ.” for “glutamax.”
as §2, with “kit (Clontech)” for “kit (Clontech, Cat. No. MK101)”, “example are” for “example were”

[2] = test system: normal human lung fibroblasts; assay: Procollagen Type 1 C-Peptide (PIPC) EIA in culture media of TGFβ-treated fibroblasts; assay type: cell-based; settings: for % Renormalization Collagen: fibroblasts treated with TGFβ, procollagen ELISA
Protocol: as §1, §2
as §1, with “(Lonza;” for “(Lonza #CC-2512;”, “CO2 conditions” for “CO2”, “glutamax. On Day 3, cells were harvested, resuspended in fresh serum-free DMEM containing silvestrol (1, 5, 10, 75, 100, 500, or 1000 nM) and 10 ng/ml TGFβ, and cultured for 24 hours. Controls included untreated cells and cells treated with only TGFβ.” for “glutamax.”
as §2, with “kit (Clontech)” for “kit (Clontech, Cat. No. MK101)”, “example are” for “example were”
The levels of α-SMA and procollagen type 1, markers of fibroblast transdifferentiation into myofibroblasts and a surrogate for fibrotic disease progression, were measured after a 24 hour incubation of fibroblasts in the presence or absence of TGFβ sieIF4A1 or siCont. The knockdown efficiency was determined by quantitating the eIF4A mRNA level by qPCR (data not shown) and assessing the protein level by western analysis (see FIG. 11).

[3] = test system: AKT, 4EBP, S6K, and S6 of the mTOR pathway; assay: Western blot of TGFβ-dependent phosphorylation of PI3K/Akt/mTOR and ERK pathway proteins; assay type: cell-based, human; settings: PP242 0.625 μM, co-incubation with TGFβ, FIG. 2
Protocol: as §3, with “The following antibodies were used at 1:1000 dilution: anti-α-actin (Sigma #A2547), anti-phospho-4EBP(Ser65), anti-phospho-rpS6(Ser235/236)(#4858), anti-phospho-ERK1/2(Thr202/Tyr204)(#4370), anti-phospho-p70S6K(Thr421/Ser424)(#9204), anti-phospho-pAKT(Ser473), anti-phospho-MNK(Thr197/202), and anti-β-actin (#4970). Unless otherwise indicated, the antibodies were from Cell Signaling Technology, Inc. (Danvers, Mass.).” left out

Row | SMILES | ratio of α-SMA to β-actin at higher silvestrol concentrations ([1]; 10 ng/ml TGFβ, 24 hours, FIG. 10) | TGFβ-induced α-SMA protein level ([1]; 10 ng/ml TGFβ, 24 hours) | EC50 ([1]; Homo sapiens, Fibroblast, 24 h, read-out: EC50 for reduction of the α-SMA protein level) | % Renormalization α-SMA ([1]; 24 hours) | EC50 ([2]; Homo sapiens, Fibroblast, 24 h, read-out: EC50 for blocking the TGFβ-induced increase in procollagen production) | % Renormalization Collagen ([2]; 24 hours) | extent of inhibition of procollagen at higher concentrations, of untreated TGFβ-transformed myofibroblasts ([2]; higher concentrations, saturable, 10 ng/ml TGFβ, 24 hours) | inhibition of procollagen relative to untreated, untransformed control fibroblasts ([2]; higher concentrations, 10 ng/ml TGFβ, 24 hours) | α-SMA level ([1]; PP242 0.625 μM, co-incubation with TGFβ, FIG. 2) | TGFβ-dependent increases in phosphorylation of AKT, 4EBP, S6K, and S6 [3]
1 | COC(=O)[C@H]1[C@@H](O)[C@@]2(O)c3c(OC)cc(O[C@@H]4O[C@@H]([C@H](O)CO)CO[C@H]4OC)cc3O[C@@]2(c2ccc(OC)cc2)[C@@H]1c1ccccc1 [Silvestrol] | the same as in untransformed, untreated fibroblasts | reduction of the α-SMA protein level in a dose dependent manner | ~11 nM | +++ (+++ = >60%) | ~12 nM | +++ (+++ = >60%) | about 90% | about 80% | – | –
2 | Cc1ccc(=O)n(-c2ccccc2)c1 [pirfenidone, 5-methyl-1-phenylpyridin-2-one] | – | – | – | +++ (+++ = >60%) | – | +++ (+++ = >60%) | – | – | – | –
3 | CC(C=CC(=O)NO)=CC(C)C(=O)c1ccc(N(C)C)cc1 (stereo not shown) [TSA, 7-[4-(dimethylamino)phenyl]-N-hydroxy-4,6-dimethyl-7-oxohepta-2,4-dienamide] | – | – | – | ++ (++ = 30-60%) | – | +++ (+++ = >60%) | – | – | – | –
4 | Cc1cc(C2CCCCC2)n(O)c(=O)c1.NCCO [CPX, ciclopirox oloamine] | – | – | – | +++ (+++ = >60%) | – | +++ (+++ = >60%) | – | – | – | –
5 | CC(C)n1nc(-c2cc3cc(O)ccc3[nH]2)c2c(N)ncnc21 [PP242] | – | reduction of the α-SMA protein level in a dose dependent manner | – | +++ (+++ = >60%) | – | +++ (+++ = >60%) | – | – | decrease in α-SMA to pretreatment levels | sufficient to abolish
